≈ marks a conversion by molar mass, not a printed value.
Key:
Assay type in all cases: cell-based
[1] = test system: Staphylococcus epidermidis 3519; assay: In vitro agar dilution MIC, organism code HH; settings: Table 1B, in µg/mL (unit assumed)
How it was run: (§1)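 Agar dilution in Brain Heart Infusion agar, twelve successive compound dilutions; inocula at 1:100 dilution (1:10 for slow-growing strains such as Streptococcus) applied by replicator. Incubation 35-37° C. for 20 to 24 hours; MIC is lowest concentration giving no growth, slight haze or sparse colonies versus growth control.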

[2] = test system: Staphylococcus aureus A5177; assay: In vitro agar dilution MIC, organism code BB; settings: Table 1B, in µg/mL (unit assumed)
How it was run: as §1

[3] = test system: Micrococcus luteus ATCC 9341; assay: In vitro agar dilution MIC, organism code OO; settings: Table 1B, unit assumed
How it was run: as §1

Escherichia coli DC-2 = assay: In vitro agar dilution MIC, organism code SS; settings: Table 1B, unit assumed
How it was run: as §1

[4] = test system: Streptococcus pyogenes PIU 2548; assay: In vitro agar dilution MIC, organism code NN; settings: Table 1B, unit assumed
How it was run: as §1

[5] = test system: Staphylococcus aureus CMX 642A; assay: In vitro agar dilution MIC, organism code DD; settings: Table 1B, unit assumed
How it was run: as §1

Escherichia coli SS = assay: In vitro agar dilution MIC, organism code RR; settings: Table 1B, in µg/mL (unit assumed)
How it was run: as §1

[6] = test system: Staphylococcus aureus A-5278; assay: In vitro agar dilution MIC, organism code CC; settings: Table 1B, unit assumed
How it was run: as §1

[7] = test system: Streptococcus pyogenes EES61; assay: In vitro agar dilution MIC, organism code LL; settings: Table 1B, unit assumed
How it was run: as §1

Escherichia coli JUHL = assay: In vitro agar dilution MIC, organism code QQ; settings: Table 1B, in µg/mL (unit assumed)
How it was run: as §1

[8] = test system: Nocardia asteroides ATCC 9970; assay: In vitro agar dilution MIC, organism code VV; settings: Table 1B, in µg/mL (unit assumed)
How it was run: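 Test compound serially diluted in Brain Heart Infusion agar across twelve plates; strains applied by Steers replicator at 1:100 dilution (1:10 for slow growers such as Streptococcus). Plates incubated 20 to 24 hours at 35-37° C. MIC taken as lowest concentration giving no growth, slight haze or sparse isolated colonies versus drug-free control.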

[9] = test system: Staphylococcus aureus CMX 553; assay: In vitro agar dilution MIC, organism code FF; settings: Table 1B, unit assumed
How it was run: as §1

[10] = test system: Enterococcus faecium ATCC 8043; assay: In vitro agar dilution MIC, organism code II; settings: Table 1B, unit assumed
How it was run: as §1

[11] = test system: Streptococcus bovis A-5169; assay: In vitro agar dilution MIC, organism code JJ; settings: Table 1B, unit assumed
How it was run: as §1

[12] = test system: Streptococcus pyogenes 930; assay: In vitro agar dilution MIC, organism code MM; settings: Table 1B, unit assumed
How it was run: as §1

[13] = test system: Staphylococcus aureus NCTC10649M; assay: In vitro agar dilution MIC, organism code EE; settings: Table 1B, unit assumed
How it was run: as §1

[14] = test system: Haemophilis influenzae DILL AMP R; assay: In vitro agar dilution MIC, organism code WW; settings: Table 1B, unit assumed
How it was run: as §1

[15] = test system: Streptococcus pneumoniae 5649; assay: In vitro agar dilution MIC, organism code ZZA; settings: Table 1B, unit assumed
How it was run: as §1

[16] = test system: Streptococcus pneumoniae 5979; assay: In vitro agar dilution MIC, organism code ZZ; settings: Table 1B, unit assumed
How it was run: as §1

[17] = test system: Streptococcus pneumoniae ATCC 6303; assay: In vitro agar dilution MIC, organism code XX; settings: Table 1B, unit assumed
How it was run: as §1

[18] = test system: Mycobacterium smegmatis ATCC 114; assay: In vitro agar dilution MIC, organism code UU; settings: Table 1B, in µg/mL (unit assumed)
How it was run: as §1

[19] = test system: Streptococcus agalactiae CMX 508; assay: In vitro agar dilution MIC, organism code KK; settings: Table 1B, unit assumed
How it was run: as §1

[20] = test system: Micrococcus luteus ATCC 4698; assay: In vitro agar dilution MIC, organism code PP; settings: Table 1B, in µg/mL (unit assumed)
How it was run: as §1

Candida albicans CCH 442 = assay: In vitro agar dilution MIC, organism code TT; settings: Table 1B, unit assumed
How it was run: as §1

[21] = test system: Streptococcus pneumoniae GYR 1171; assay: In vitro agar dilution MIC, organism code YY; settings: Table 1B, unit assumed
How it was run: as §1

[22] = test system: Staphylococcus aureus 1775; assay: In vitro agar dilution MIC, organism code GG; settings: Table 1B, unit assumed
How it was run: as §1

[23] = test system: Staphylococcus aureus ATCC 6538P; assay: In vitro agar dilution MIC, organism code AA; settings: Table 1B, unit assumed
How it was run: as §1

`CC[C@H]1OC(=O)[C@@](C)(F)C(=O)[C@H](C)[C@@H](O[C@@H]2O[C@H](C)C[C@H](N(C)C)[C@H]2O)[C@](C)(OC/C=C/c2cnc3ccc(N)cc3c2)C[C@@H](C)C(=O)[C@H](C)[C@H]2NC(=O)O[C@@]21C` [Example 9] was tested, and the MIC [1] was 0.02, the MIC [2] was 0.02 and the MIC [3] was ≤ 0.005 µg/mL. The MIC (Escherichia coli DC-2) was 25 µg/mL (≈ 31.3 µM), the MIC [4] was 0.1 µg/mL (≈ 0.125 µM) and the MIC [5] was 0.02 µg/mL (≈ 0.025 µM). For the same compound, the MIC (Escherichia coli SS) was 0.2, the MIC [6] was > 100 µg/mL and the MIC [7] was ≤ 0.005 µg/mL. The MIC (Escherichia coli JUHL) was 25, the MIC [8] was < 0.005 and the MIC [9] was 0.02 µg/mL (≈ 0.025 µM). For the same compound, the MIC [10] was 0.01 µg/mL (≈ 0.0125 µM), the MIC [11] was ≤ 0.005 µg/mL and the MIC [12] was 0.2 µg/mL (≈ 0.25 µM). The MIC [13] was 0.05 µg/mL (≈ 0.0626 µM), the MIC [14] was 2 µg/mL (≈ 2.5 µM) and the MIC [15] was 1 µg/mL (≈ 1.25 µM). For the same compound, the MIC [16] was 0.25 µg/mL (≈ 0.313 µM), the MIC [17] was 0.015 µg/mL (≈ 0.0188 µM) and the MIC [18] was 0.78. For the same compound, the MIC [19] was ≤ 0.005 µg/mL, the MIC [20] was 0.02 and the MIC (Candida albicans CCH 442) was > 100 µg/mL. For the same compound, the MIC [21] was 0.015 µg/mL (≈ 0.0188 µM), the MIC [22] was > 100 µg/mL and the MIC [23] was 0.02 µg/mL (≈ 0.025 µM).
With `CC[C@H]1OC(=O)C(C)(F)C(=O)[C@H](C)[C@@H](O[C@@H]2O[C@H](C)C[C@H](N(C)C)[C@H]2O)[C@](C)(OCC#CC(=O)c2cccs2)C[C@@H](C)C(=O)[C@H](C)[C@H]2NC(=O)O[C@@]21C` (stereo partly drawn) [Example 24] the MIC [1] was 1.56, the MIC [2] was 1.56 and the MIC [3] was 0.2 µg/mL (≈ 0.261 µM). For the same compound, the MIC (Escherichia coli DC-2) was > 100 µg/mL, the MIC [4] was 3.1 µg/mL (≈ 4.05 µM) and the MIC [5] was 1.56 µg/mL (≈ 2.04 µM). The MIC (Escherichia coli SS) was 3.1, the MIC [6] was > 100 µg/mL and the MIC [7] was 0.39 µg/mL (≈ 0.51 µM). For the same compound, the MIC (Escherichia coli JUHL) was 100, the MIC [8] was 0.78 and the MIC [9] was 1.56 µg/mL (≈ 2.04 µM). The MIC [10] was 0.39 µg/mL (≈ 0.51 µM), the MIC [11] was 0.2 µg/mL (≈ 0.261 µM) and the MIC [12] was 100 µg/mL (≈ 131 µM). It also gave an MIC [13] of 1.56 µg/mL (≈ 2.04 µM), an MIC [14] of 16 µg/mL (≈ 20.9 µM) and an MIC [15] of 1 µg/mL (≈ 1.31 µM). The MIC [16] was > 64 µg/mL, the MIC [17] was 0.06 µg/mL (≈ 0.0784 µM) and the MIC [18] was 3.1. For the same compound, the MIC [19] was 0.39 µg/mL (≈ 0.51 µM), the MIC [20] was 0.78 and the MIC (Candida albicans CCH 442) was > 100 µg/mL. For the same compound, the MIC [21] was 0.03 µg/mL (≈ 0.0392 µM), the MIC [22] was > 100 µg/mL and the MIC [23] was 1.56 µg/mL (≈ 2.04 µM).
For `CC[C@H]1OC(=O)C(C)(F)C(=O)[C@H](C)[C@@H](O[C@@H]2O[C@H](C)C[C@H](N(C)C)[C@H]2O)[C@](C)(OCC#CC(=O)c2ccccc2)C[C@@H](C)C(=O)[C@H](C)[C@H]2NC(=O)O[C@@]21C` (stereo partly drawn) [Example 23], the MIC [1] was 1.56, the MIC [2] was 0.78 and the MIC [3] was 0.2 µg/mL (≈ 0.264 µM). The MIC (Escherichia coli DC-2) was > 100 µg/mL, the MIC [4] was 1.56 µg/mL (≈ 2.06 µM) and the MIC [5] was 1.56 µg/mL (≈ 2.06 µM). For the same compound, the MIC (Escherichia coli SS) was 3.1, the MIC [6] was > 100 µg/mL and the MIC [7] was 0.39 µg/mL (≈ 0.514 µM). The MIC (Escherichia coli JUHL) was > 100, the MIC [8] was 0.78 and the MIC [9] was 0.78 µg/mL (≈ 1.03 µM). The MIC [10] was 0.78 µg/mL (≈ 1.03 µM), the MIC [11] was 0.1 µg/mL (≈ 0.132 µM) and the MIC [12] was > 100 µg/mL. The MIC [13] was 1.56 µg/mL (≈ 2.06 µM), the MIC [14] was 8 µg/mL (≈ 10.5 µM) and the MIC [15] was 2 µg/mL (≈ 2.64 µM). For the same compound, the MIC [16] was > 128 µg/mL, the MIC [17] was 0.03 µg/mL (≈ 0.0395 µM) and the MIC [18] was 3.1. For the same compound, the MIC [19] was 0.39 µg/mL (≈ 0.514 µM), the MIC [20] was 1.56 and the MIC (Candida albicans CCH 442) was > 100 µg/mL. The MIC [21] was 0.03 µg/mL (≈ 0.0395 µM), the MIC [22] was > 100 µg/mL and the MIC [23] was 1.56 µg/mL (≈ 2.06 µM).

Reference: patent publication US6124269A, “2-Halo-6-O-substituted ketolide derivatives” (priority 1998, dated 2000)
